Read-outs that look alike come from different tables or passages of the source.
Assays:
basophil cells [1] = experiment: Basophil IgE activation: histamine release assay; format: cell-based, human; settings: Basophils, anti-IgE
Method: (§1) The basophil activation assay was carried out using whole human peripheral blood from donors allergic to dust mites with the majority of the red blood cells removed by dextran sedimentation. Human peripheral blood was mixed 1:1 with 3% dextran T500 and RBCs were allowed to settle for 20-25 min. The upper fraction was diluted with 3 volumes of D-PBS and cells were spun down for 10 min at 1500 rpm, RT. Supernatant was aspirated and cells were washed in an equal volume MT-buffer. Finally, cells were resuspended in MT-buffer containing 0.5% DMSO in the original blood volume. 80 uL cells were mixed with 20 uL compound in the presence of 0.5% DMSO, in triplicate, in a V-bottom 96-well tissue culture plate. A dose range of 8 compound concentrations was tested resulting in a 10-point dose response curve including maximum (stimulated) and minimum (unstimulated) response. […] The cells were stimulated for 30 minutes at 37° C., 5% CO2. The plate was spun for 10 min at 1500 rpm at room temperature and 80 uL the supernatant was harvested for histamine content analysis using the histamine ELISA kit supplied by Immunotech. The ELISA was performed according to supplier's instructions.

[2] = system: cultured human mast cells (CHMC); experiment: CHMC low cell density ionomycin activation: hexosaminidase (Hexos.) release; format: cell-based
[3] = system: bone marrow derived mast cells (BMMC); experiment: BMMC high cell density IgE activation: hexosaminidase; format: cell-based, mouse; settings: anti-IgE, second part of TABLE 1, read-out: BMMC anti-IgE hexos. IC50
How it was run: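 IgE-sensitized BMMC at 1-3×10^6 cells/ml preincubated 1 hour at 37° C. with compound (0.5% DMSO), then stimulated 1 hour with DNP-BSA (6× stimulus 60 ng/ml). Supernatant hexosaminidase measured with 2 mM 4-methylumbelliferyl-N-acetyl-glucosaminide substrate at 37° C., read at 5–30 minutes.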

[4] = system: bone marrow derived mast cells (BMMC); experiment: BMMC high cell density ionomycin activation: hexosaminidase; format: cell-based, mouse; settings: second part of TABLE 1, read-out: BMMC Ionomycin hexos. IC50
basophil cells [5] = experiment: Basophil ionomycin activation: histamine release assay; format: cell-based, human; settings: Basophils
Method: as §1
Assays for ionomycin-induced basophil cell degranulation were carried out as described for the Basophil IgE or Dustmite Activation Assay (Section 6.4.6, supra), with the exception that following incubation with compound, cells were stimulated with 20 μl of 2 μM ionomycin.

[6] = system: cultured human mast cells (CHMC); experiment: CHMC low cell density anti-IgE activation: hexosaminidase (Hexos.) release; format: cell-based
[7] = 14-day repeat-dose intranasal toxicity study in New Zealand White rabbits; format: in vivo
Method: A 14-day repeat-dose intranasal toxicity study in New Zealand White rabbits was performed at doses of 1.7, 3.4 or 5.0 mg/kg/day. In life parameters included: clinical observations, body weights, food consumption, ophthalmology, hematology, clinical chemistry, gross necropsy, organ weights, toxicokinetic assessments and histopathology (including the nasal cavity).

[8] = Exposure to skin and eyes; settings: in vivo
Description: (§2) A short discussion of key toxicology studies is provided.

[9] = 14-day repeat-dose toxicity studies (summary of non-clinical safety program); format: in vivo, rabbits and primates; mice and rats
Description: as §2

[10] = 14-day repeat-dose intranasal toxicity study in Cynomolgus monkeys; format: in vivo
Method: A 14-day repeat-dose intranasal toxicity study in Cynomolgus monkeys was performed at doses of 2.1, 4.5 or 6.3 mg/kg/day. In life parameters included: clinical observations, body weights, food consumption, ophthalmology, blood pressure, electrocardiography, hematology, clinical chemistry, urinalysis, immunotoxicological assessment, gross necropsy, organ weights, toxicokinetic assessments and histopathology (including the nasal cavity).

CHMC cells [11] = experiment: Phosphorylation of proteins downstream of Syk / LYN kinase in the FcεRI cascade, activated CHMC cells; format: cell-based, human; settings: varying concentrations, FIG. 10
[12] = Genetic toxicology testing
Description: as §2

Syk kinase = Syk kinase (Homo sapiens (Human), UniProt P43405); experiment: Isolated Syk kinase: phosphorylation of a peptide substrate or endogenous substrate (LAT); settings: increasing concentrations; FIG. 8
[13] = Core safety pharmacology battery (cardiovascular, respiratory, central nervous system function); settings: in vivo
Description: as §2

[14] = system: FcγRI-mediated degranulation; experiment: FcγRI receptor-mediated degranulation (activation with anti-human IgG Fab fragment); format: cell-based; settings: cells not primed with IgE, activated with rabbit anti-human IgG Fab fragment
CHMC cells [15] = experiment: ionomycin-induced calcium ion flux in CHMC cells; format: cell-based, human; settings: 10 μM compound
[16] = Immediacy (time course) of inhibitory activity; format: cell-based; settings: FIG. 5
BMMC cells = experiment: Phosphorylation of proteins downstream of Syk kinase in the IgE receptor cascade, activated BMMC cells; format: cell-based, mouse; settings: varying concentrations, FIG. 7
[17] = system: IgE-induced degranulation of tissue mast cells; experiment: Mouse model of passive cutaneous anaphylaxis (PCA); format: in vivo; settings: for % Inhibition (PCA) / Plasma level: PO
Method: (§3) This model provides a direct measure of IgE-induced degranulation of tissue mast cells. In this model, IgE primed animals are exposed to an allergen challenge, and the change in permeability of dermal vasculature that results from histamine release from mast cells is measured by change in the amount of dye leakage into surrounding tissue. Inhibition of mediator release by compounds that modulate mast cell degranulation is easily measured by extracting the dye from the tissue.
(§4) In the PCA assay mice are passively sensitized by intradermal injection with anti-dinitrophenol (DNP) IgE antibodies (Day −1). At predetermined times animals are treated with the test agent (Day 0). The modulatory effect of the agent on cutaneous mast cell degranulation is measured following intravenous injection of DNP conjugated to human serum albumin (HSA-DNP), together with Evans blue dye. The resulting cross-linking of the IgE receptor and subsequent mast cell degranulation-induced increase in vascular permeability is determined by measuring the amount of dye extravasation into the tissue. Dye is extracted from the tissue by formamide, and the absorbance of this extract is read at 620 nm.

CHMC cells [18] = experiment: anti-IgE-induced calcium ion flux in CHMC cells; format: cell-based, human; settings: 10 μM compound
[19] = Sheep model of allergic asthma (Ascaris suum challenge); format: in vivo
Method: Sheep develop bronchoconstriction within minutes of exposure to inhaled antigen (Ascaris suum), with maximal airflow obstruction during the early allergic response (EAR). Release of preformed mast cell mediators is likely responsible for this early phase of airflow obstruction. […] In the sheep, AHR develops a few hours following antigen challenge, and can persist for up to 2 weeks.
In the sheep model of allergic asthma, sheep are administered aerosols of test article via an endotracheal tube, followed by an aerosol challenge with antigen extracted from the roundworm, Ascaris suum, to which the sheep are naturally allergic. Allergen challenge leads to direct bronchoconstriction (both EAR and LAR) and a persistent non-specific AHR. These three characteristics are similar to those seen in human allergic asthmatics. The activity of the test agent is determined by changes in the lung resistance (RL), which is calculated from measurements of transpulmonary pressure, flow, and respiratory volume. […] The LAR is a less pronounced increase in RL, which starts approximately 5-6 hours following allergen challenge and is resolved by 8 hours post-challenge. Twenty-four hours after the challenge, a dose response to carbachol is measured to determine the AHR, which is expressed as the dose of carbachol required to increase RL by 400% over baseline. (This measurement is referred to as the provocative concentration of carbachol that elicits a 400% increase in RL over baseline (PC400). The data are compared to historical control data for the same individual when administered a saline control aerosol and challenged with Ascaris suum.

in vivo = settings: mouse, po
[20] = system: Salmonella-Escherichia coli tester strains; settings: Salmonella / Escherichia coli
[21] = format: in vivo; settings: rat, 50, 150 and 300 mg/kg
[22] = Pharmacokinetics / oral bioavailability in rats; format: in vivo; settings: rat, in vivo
Method: Over 50 2,4-pyrimidinediamine compounds of the invention were tested for oral bioavailability. For the study, compounds were dissolved in various vehicles (e.g. PEG 400 solution and CMC suspension) for intravenous and oral dosing in the rats. Following administration of the drug, plasma samples were obtained and extracted. The plasma concentrations of the compounds were determined by high performance liquid chromatography/tandem mass spectrometry (LC/MS/MS) methods. Pharmacokinetic analyses were performed based on the plasma concentration data. The pharmacokinetic parameters of interest include Clearance (CL), Volume of distribution at steady-state (Vss), terminal half-life (t1/2), and oral bioavailability (% F).

[23] = mouse, in vivo
[24] = Mouse model of passive cutaneous anaphylaxis (PCA); format: in vivo; settings: mouse, plasma, PO, 1.5% Avicel/water, 200 mg/kg, read-out: Plasma level (duration of action)
Method: as §3, §4

[25] = in vitro chromosomal aberration assay
[26] = 67% PEG/33% citrate buffer, pretreatment 10 min, 50 mg/kg
[27] = 67% PEG/33% citrate buffer, pretreatment 10 min, 100 mg/kg
[28] = 67% PEG/33% citrate buffer, pretreatment 10 min, 200 mg/kg
[29] = 30 mg/sheep, pretreatment 15 min, 10% ethanol

With Fc1cnc(Nc2ccc(N3CCOCC3)cc2)nc1Nc1ccc(N2CCOCC2)cc1 [R926114, N2,N4-Bis[4-(N-morpholino)phenyl]-5-fluoro-2,4-pyrimidinediamine] the IC50 (basophil cells [1]) was 1.7 µM, the IC50 [2] was 8.1 µM and the IC50 [3] was over 10 µM. For the same molecule, the IC50 [4] was over 10 µM, the IC50 (basophil cells [5]) was 10 µM and the IC50 [6] was 3.43 µM.
In the case of Oc1cccc(Nc2ncc(F)c(Nc3cccc(O)c3)n2)c1 [R921218, N2,N4-Bis(3-hydroxyphenyl)-5-fluoro-2,4-pyrimidinediamine], the adverse findings ([7]; intranasal 1.7, 3.4 or 5.0 mg/kg/day) is reported as “no adverse findings”, the NOAEL at 14 days ([7]; rabbit, in vivo, inhaled or intranasal, intranasal, New Zealand White rabbits, read-out: NOAEL (no observed adverse effect level)) is reported as 5 mg/kg/day and the “effects after exposure to skin and eyes” value [8] is reported as “nor were there untoward effects”. The “dose limiting toxicity, intranasal route, non-rodents (rabbits and primates)” value [9] was “no dose limiting toxicity”, the “dose limiting toxicity, oral route, rodents (mice and rats)” value [9] was “no dose limiting toxicity” and the NOAEL at 14 days ([10]; cynomolgus monkey, in vivo, inhaled or intranasal, intranasal, Cynomolgus monkeys, read-out: NOAEL (no observed adverse effect level)) was 6.3 mg/kg/day. For the same molecule, the adverse findings ([10]; intranasal 2.1, 4.5 or 6.3 mg/kg/day) was “no adverse findings”, the “phosphorylation of proteins downstream of Syk kinase” value (CHMC cells [11]) was “inhibit” and the “mutagenic or clastogenic potential” value [12] was “no evidence for mutagenic or clastogenic potential”. For the same molecule, the “Syk kinase phosphorylation of a peptide substrate” value (Syk kinase) was “dose responsive inhibition”, the “Syk kinase phosphorylation of an endogenous substrate (LAT)” value (Syk kinase) was “dose responsive inhibition” and the “findings in core safety pharmacology battery” value [13] was “no adverse findings”. The “FcγRI-mediated degranulation (in words)” value [14] was “inhibit FcγRI-mediated degranulation”, the “ionomycin-induced Ca2+ flux” value (CHMC cells [15]) was “no effect” and the “onset of inhibitory activity” value [16] was “immediacy of the inhibitory activity”. The “phosphorylation of various proteins downstream of Syk kinase” value (BMMC cells) was “inhibit”, the “% Inhibition (PCA)” value [17, 26] was 7% and the Plasma level [17, 26] was 3 µg/mL. The “% Inhibition (PCA)” value [17, 27] was 11%, the Plasma level [17, 27] was 4 µg/mL and the “% Inhibition (PCA)” value [17, 28] was 50%. The Plasma level [17, 28] was 18 µg/mL, the “FcεR-mediated vascular leakage with increasing doses (in words)” value ([17]; solution (67% PEG/33% citrate buffer) or aqueous suspension (1.5% Avicel)) was “dose-dependent inhibition” and the “anti-IgE-induced Ca2+ flux” value (CHMC cells [18]) was “inhibited”. For the same molecule, the “AHR (% inhibition)” value [19, 29] was 101%, the “EAR (% inhibition)” value [19, 29] was 66% and the “LAR (% inhibition)” value [19, 29] was 78%. The “EAR (in words)” value ([19]; aqueous suspension) was “failed to inhibit”.
In the case of Nc1cccc(Nc2ncc(F)c(Nc3cccc(N)c3)n2)c1 [R921302, N2,N4-Bis(3-aminophenyl)-5-fluoro-2,4-pyrimidinediamine], the NOAEL at 14 days (in vivo) is reported as 100 mg/kg, the Ames test result [20] is reported as “test positive in tester strain TA98 with S9 and TA1537, with and without metabolic activation” and the “tolerability, oral doses for 32 days” value [21] is reported as “appeared to be well tolerated”. The “FcγRI-mediated degranulation (in words)” value [14] was “inhibit FcγRI-mediated degranulation”, the “metabolic stability in pharmacokinetics studies (in words)” value [22] was “most metabolically stable compound” and the “oral dose tolerated for up to 7-days” value [23] was 1000 mg/kg. The “tolerability, 28-day oral toxicity study” value ([23]; 100 mg/kg) was “appeared to be well tolerated”, the “tolerability, 28-day oral toxicity study” value ([23]; 300 mg/kg) was “not tolerated” and the Plasma level ([17]; 1.5% Avicel/water, pretreatment 60 min, 50 mg/kg) was 25 µg/mL. For the same molecule, the Plasma level ([17]; 1.5% Avicel/water, pretreatment 60 min, 100 mg/kg) was 38 µg/mL, the Plasma level ([17]; 1.5% Avicel/water, pretreatment 60 min, 150 mg/kg) was 64 µg/mL and the Plasma level ([17]; 1.5% Avicel/water, pretreatment 60 min, 200 mg/kg) was 105 µg/mL. For the same molecule, the “time prior to antigen-induced receptor signaling over which vascular permeability was inhibited before efficacy began to decrease” value ([17]; mouse, in vivo) was 1 to 2 h, the concentration at 30 min ([24]; pretreatment 30 min) was 88 µg/mL and the concentration at 60 min ([24]; pretreatment 60 min) was 53 µg/mL. The concentration at 120 min ([24]; pretreatment 120 min) was 61 µg/mL, the concentration at 240 min ([24]; pretreatment 240 min) was 8 µg/mL and the clastogenic potential [25] was “not clastogenic”.
